Test results: patent US6521593B1, “Methods for inhibiting brain tumor growth” (Childrens Hospital Los Angeles, priority 1999, dated 2003)

Columns and labels:
[1] = test system: U87 glioblastoma cells; assay: Apoptosis of cells grown on ECM (FIG. 8), U87; type: cell-based, human; conditions: 20 μg/ml, 24 hours
Protocol: Non tissue culture dishes were incubated 1 hour at 37° C. with vitronectin, tenascin, fibronectin or collagen I (10 μg/ml), then washed with PBS. After the wash, 5×10^5 cells /well were plated and incubated for 16 hours at 37° C. The cultures were then washed and an adhesion buffer containing 20 μg/ml of pentapeptide or control peptide were added and incubated for an additional 2-24 hours. The cultures were then washed twice with adhesion buffer and stained with Crystal violet and the OD 600 determined. The more adherent cells are present, the higher the OD. Data represent adherent cells after 8-hour incubation. U87=glioblastoma and DAOY=medulloblastoma.
Test conditions were as in FIG. 7, except that detached cells and adherent cells were combined after trypsinisation. The cells were then washed, suspended in 50 μl PBS and centrifuged in glass cover slides (cytospin). After fixation with 4% paraformaldehyde, the cells were stained for apoptosis using the Boehringer Apoptosis Kit. Results are expressed in a percentage of apoptotic cells versus total number of cells. Experiment was done after 24 hours of incubation with the peptides.

[2] = test system: DAOY cells; assay: Apoptosis on vitronectin (Annexin V-FITC FACS), DAOY; type: cell-based, human; conditions: 20 μg/ml, 4 hrs
Protocol: Apoptosis: Adhesion conditions were as above, except that 12 well plates covered with vitronectin and 5×10^5 cells/well were plated in adhesion buffer. […] Attached cells were trypsinized and combined with the detached cells in the supernatant and then examined for the presence of apoptotic cells using the Apo Alert Annexin V-FITC apoptosis kit (Clontech).
FIGS. 6a-6d show the integrin profile (a), effect of αv-antagonist on adhesion to (b), migration on (c) and cell viability on vitronectin (d) for brain tumor and brain capillary endothelial cells. Both DAOY and U87MG tumor cells and brain capillary cells express the integrins αvβ3 and αvβ5 (a). […] Cell viability was tested by letting the cells attach to vitronectin for 1 hour, and then exposing them for 4 hours to the control peptide or αv-antagonist (20 μg/ml) (d). Adherent and floating cells were combined and examined by FACS for apoptosis, using FITC labeled anti-annexin V and propidium iodide.
We have previously shown that pre-incubation of brain tumor or capillary cells with the cRGD peptide, or the combination of anti-αvβ3 and anti-αvβ5 antibodies, prevents cell adhesion to vitronectin. […] Attached cells were combined after trypsinization with floating cells and the number of apoptotic cells was determined by FACS, using anti-annexin V-FITC antibody and propidium iodide (Clontech Apo alert Annexin V-FITC detection apoptosis kit).

[3] = test system: DAOY human brain tumor cells; assay: CAM assay: angiogenesis and growth of DAOY tumors on chick chorioallantoic membrane; type: in vivo; conditions: 100 μg into a CAM vein, 6 days
Protocol: CAM assay: Egg supplier and preparation have been described earlier (23). Tumor cells were plated in 50 μl PBS at 4×10^6 cells/egg for DAOY and 3.5×10^6 cells/egg for U87MG. Cells were grown to tumors for 7 days, then harvested under sterile conditions, trimmed to similar sizes and […] onto the CAM of 10-day-old embryos. […] Tumors were photographed in situ after 7 days of growth, then harvested, weighed and fixed in 4% buffered formalin and embedded in paraffin. After serial sectioning, slides were stained with hematoxilin and eosin.
To assess the effect of αv antagonism on brain tumor associated angiogenesis, DAOY and U87MG human brain tumor cells were grown on chick chorioallantoic membranes (CAMs). The tumors were allowed to grow for 7 days before they were removed and reimplanted onto fresh CAMs. 24 hours after transfer, 100 μg of either the active cRGD peptide or control peptide (cRAD) was injected into a CAM vein. Tumors were grown for an additional 6 days and then weighed and analyzed for vascularization. […] In contrast to control tumors, which increased 80% in weight, αv-antagonist treated tumors decreased 30% in weight (FIG. 1b).
FIGS. 1a and 1b show the inhibition of angiogenesis (a) and tumor growth on the CAM (b) by an αv-antagonist. Brain tumors grown on CAMs were harvested and cut to similar sizes and placed on fresh CAMs of 10-day-old chicken eggs. The following day, 100 μg of active αv-inhibitor or control peptide were injected into the chicken veins and grown for another 6 days. […] Tumors placed on the CAM were weighed at the beginning and end of the experiment (b). The weight of the tumors treated with the control peptide increased by 80% for both tumor types (left, n=8), whereas it decreased by about 30% when the active peptide was administered (right, n=8).

[4] = test system: human brain endothelial cells (HBEC); assay: Vitronectin migration (Boyden chamber), HBEC; type: cell-based; conditions: test substance 20 μg/ml, 4 hrs
Protocol: (§1) Migration: Transwell polycarbonate filters (8 μm pore size) were incubated for 30 min. at 37° C. with vitronectin in PBS (1 μg/ml on the upper side and 10 μg on the bottom side), blocked for 30 min. with 1% heat denatured BSA and washed with PBS. Test cells (5×10^5/well) were added in adhesion buffer containing the test substances indicated (20 μg/ml) and incubated for 4 hrs at 37° C. with the lower chamber containing adhesion buffer. Cells in the upper chamber were removed with a cotton swab and cells on the bottom part of the filter were fixed and stained with crystal violet and the number of migrated cells determined by counting.
(§2) To address whether αvβ3 and αvβ5 modulate migration on vitronectin, independent of adhestion, we tested the same cells on vitronectin-coated membranes in Boyden chambers while in the presence of blocking antibodies or cRGD. […] Since LM-609, in the absence of P1-F6, was incapable of blocking adhesion, this anti-migratory effect must be mediated through a distinct pathway which is independent of forces responsible for adhesion.

[5] = test system: DAOY cells; assay: Vitronectin migration (Boyden chamber), DAOY; type: cell-based, human; conditions: test substance 20 μg/ml, 4 hrs
Protocol: as §1, §2

[6] = test system: human brain endothelial cells (HBEC); assay: Vitronectin adhesion, HBEC; type: cell-based; conditions: test substance 20 μg/ml
Protocol: Adhesion: Assay conditions were as previously described (15). Non-tissue culture treated wells incubated overnight at 4° C. with vitronectin (1-10 μg/ml PBS), washed and blocked for 30 min. with heat denatured 1% BSA in PBS, followed by washing with PBS. Control and test cells, pre-incubated at 37° C. with the test substance (20 μg/ml) in adhesion buffer for 30 min. were plated into wells (5×10^4 cells/well) and incubated for 1 hr at 37° C. After gentle washing of the wells with adhesion buffer, adhering cells were fixed and stained with crystal violet, the dye solubilized in methanol and the OD determined at […].
To determine if αvβ3 and αvβ5 regulate DAOY, U87MG and HBEC adhesion to vitronecin, the cells were plated in vitronectin-coated wells and allowed to adhere in the presence or absence of either blocking antibodies to αvβ3 (LM-609) and αvβ5 (P1-F6) or the cRGD peptide.

CC(C)[C@H]1C(=O)N[C@@H](CCCN=C(N)N)C(=O)NCC(=O)N[C@@H](CC(=O)O)C(=O)N[C@H](Cc2ccccc2)C(=O)N1C [EMD 121974, cyclo(Arg-Gly-Asp-D-Phe-[N-Me]-Val)]
cell survival / apoptotic cells ([1]; U87 grown on collagen I or fibronectin): did not alter the survival | cell survival / apoptotic cells ([1]; U87 grown on vitronectin or tenascin): increased number of dead cells | apoptosis after attachment to vitronectin [2]: significant apoptosis | tumor-associated angiogenesis (stereomicroscope) [3]: significant suppression of angiogenesis | decrease of tumor weight ([3]; n=8, listed as active peptide): about 30% | decrease of tumor weight ([3]; n=8, listed as αv-antagonist): 30% | migration on vitronectin [4]: significantly inhibited | migration on vitronectin [5]: significantly inhibited | adhesion to vitronectin [6]: Significant inhibition
